Source: US20260015360A1 (MOMA Therapeutics, Inc., priority 2023, published 2026)

What was measured:
DLD1 WT cells = assay: DLD1 viability assay (CellTiter-Glo, 7 days), DLD1 WT; format: cell-based; conditions: Homo sapiens, DLD-1, 168 h
Procedure: (§1) The seeding densities are pre-determined from the growth curve kinetics performed to ensure log linear phase of cell growth for these 2 cell lines. These assay plates are then placed in the incubator at 37° C., 5% CO2, relative humidity>90% for a few hours before addition of test compounds. Compounds are dispensed using the Tecan HPD300 or Echo based on the plate map in the appropriate wells of the 384-well plates. […] After addition of the test compounds, the plates are incubated at 37° C., 5% CO2, relative humidity>90% for 7 days. CellTiter-Glo (Promega Cat. No. G7573), ATP detection reagent is prepared according to manufacturer's specifications. Cell assay plates are removed from incubator and bring to room temperature (RT) by letting them sit at bench top for at least 15 min. Using the MultiDrop liquid handler or a multichannel pipette, 35 μL/well of CTG is added and the plates are then placed shakes for 5 seconds, RT. These plates are then incubated for 30 minutes in the dark at RT before measuring luminescence using Spectramax/Enspire/Ensight/Envision/PheraSTAR.

DLD1 BRCA2 (−/−) cells = assay: DLD1 viability assay (CellTiter-Glo, 7 days), DLD1 BRCA2 (−/−); format: cell-based; conditions: Homo sapiens, DLD-1, 168 h, read-out: Viability IC50 (μM) DLD1 BRCA2 null
Procedure: as §1

SMILES | IC50 (DLD1 WT cells) [µM] | IC50 (DLD1 BRCA2 (−/−) cells) [µM]
COc1cnc(Cl)cc1-c1cc(C)ncc1C(=O)Nc1nc2ncc(C3=CCC(O)(C(F)F)CC3)nc2s1 (centres unmarked) [Example 396, 2′-chloro-N-(6-(4-(difluoromethyl)-4-hydroxycyclohex-1-en-1-yl)thiazolo[4,5-b]pyrazin-2-yl)-5′-methoxy-6-methyl-[4,4′-bipyridine]-3-carboxamide] | > 10 | 0.001 to 0.1
COc1cnc(Cl)cc1-c1cc(C)ncc1C(=O)Nc1nc2ncc(C3=CCC(OC(F)F)CC3)nc2s1 (centres unmarked) [Example 405, 2′-chloro-N-(6-(4-(difluoromethoxy)cyclohex-1-en-1-yl)thiazolo[4,5-b]pyrazin-2-yl)-5′-methoxy-6-methyl-[4,4′-bipyridine]-3-carboxamide] | > 10 | 0.001 to 0.1
COc1cnc(Cl)cc1-c1cc(C)ncc1C(=O)Nc1nc2ncc(C3=CCC(C)(C#N)CC3)nc2s1 (centres unmarked) [Example 407, 2′-chloro-N-(6-(4-cyano-4-methylcyclohex-1-en-1-yl)thiazolo[4,5-b]pyrazin-2-yl)-5′-methoxy-6-methyl-[4,4′-bipyridine]-3-carboxamide] | > 10 | 0.001 to 0.1
COc1cnc(Cl)cc1-c1cc(C)ncc1C(=O)Nc1nc2ncc(N3C[C@@H](C)OC[C@H]3C)nc2s1 [Example 409, 2′-chloro-N-(6-((2R,5R)-2,5-dimethylmorpholino)thiazolo [4,5-b]pyrazin-2-yl)-5′-methoxy-6-methyl-[4,4′-bipyridine]-3-carboxamide] | > 10 | 0.001 to 0.1
COc1cnc(Cl)cc1-c1cc(C)ncc1C(=O)Nc1nc2ncc(N3C[C@H](C)OC[C@@H]3C)nc2s1 [Example 412, 2′-chloro-N-(6-((2S,5S)-2,5-dimethylmorpholino)thiazolo [4,5-b]pyrazin-2-yl)-5′-methoxy-6-methyl-[4,4′-bipyridine]-3-carboxamide] | > 10 | 0.001 to 0.1
COc1ccc(C#N)cc1-c1cc(C)ncc1C(=O)Nc1nc2ncc(C3=CCC(CO)CC3)nc2s1 (centres unmarked) [Example 421, 4-(5-cyano-2-methoxyphenyl)-N-(6-(4-(hydroxymethyl)cyclohex-1-en-1-yl)thiazolo[4,5-b]pyrazin-2-yl)-6-methylnicotinamide] | > 10 | 0.001 to 0.1
COc1cnc(Cl)cc1-c1cc(C)ncc1C(=O)Nc1nc2ncc(N3C[C@H](C)OC[C@H]3C)nc2s1 [Example 422, 2′-chloro-N-(6-((2S,5R)-2,5-dimethylmorpholino)thiazolo [4,5-b]pyrazin-2-yl)-5′-methoxy-6-methyl-[4,4′-bipyridine]-3-carboxamide] | > 10 | 0.001 to 0.1
COc1cnc(Cl)cc1-c1cc(C)ncc1C(=O)Nc1nc2ncc(N3C[C@H](C)O[C@@H](C)C3)nc2s1 [Example 436, 2′-chloro-N-(6-((2S,6S)-2,6-dimethylmorpholino)thiazolo [4,5-b]pyrazin-2-yl)-5′-methoxy-6-methyl-[4,4′-bipyridine]-3-carboxamide] | > 10 | 0.001 to 0.1
COc1cnc(Cl)cc1-c1cc(C)ncc1C(=O)Nc1nc2ncc(C3=CCOC(C)C3)nc2s1 (centres unmarked) [Example 443, 2′-chloro-5′-methoxy-6-methyl-N-(6-(2-methyl-3,6-dihydro-2H-pyran-4-yl)thiazolo[4,5-b]pyrazin-2-yl)-[4,4′-bipyridine]-3-carboxamide] | > 10 | 0.001 to 0.1
COc1cnc(Cl)cc1-c1cc(C2CC2)ncc1C(=O)Nc1nc2ncc(-c3ccnc(C)c3)nc2s1 [Example 445, 2′-chloro-6-cyclopropyl-5′-methoxy-N-(6-(2-methylpyridin-4-yl)thiazolo[4,5-b]pyrazin-2-yl)-[4,4′-bipyridine]-3-carboxamide] | > 10 | 0.001 to 0.1
COc1cnc(Cl)cc1-c1cc(C)ncc1C(=O)Nc1nc2ncc(-c3cccc(C(F)F)n3)nc2s1 [Example 446, 2′-chloro-N-(6-(6-(difluoromethyl)pyridin-2-yl)thiazolo[4,5-b]pyrazin-2-yl)-5′-methoxy-6-methyl-[4,4′-bipyridine]-3-carboxamide] | > 10 | 0.001 to 0.1
COc1cnc(Cl)cc1-c1cc(C)ncc1C(=O)Nc1nc2ncc(N3CC[C@H](OC)[C@@H](F)C3)nc2s1 [Example 452, 2′-chloro-N-(6-((3S,4S)-3-fluoro-4-methoxypiperidin-1-yl)thiazolo[4,5-b]pyrazin-2-yl)-5′-methoxy-6-methyl-[4,4′-bipyridine]-3-carboxamide] | > 10 | 0.001 to 0.1
COc1cnc(Cl)cc1-c1cc(C)ncc1C(=O)Nc1nc2ncc(N3CCC4(CCCO4)CC3)nc2s1 [Example 459, N-(6-(1-oxa-8-azaspiro[4.5]decan-8-yl)thiazolo[4,5-b]pyrazin-2-yl)-2′-chloro-5′-methoxy-6-methyl-[4,4′-bipyridine]-3-carboxamide] | > 10 | 0.001 to 0.1
COc1cnc(Cl)cc1-c1cc(C)ncc1C(=O)Nc1nc2ncc(N3CCC(OC4CC4)CC3)nc2s1 [Example 462, 2′-chloro-N-(6-(4-cyclopropoxypiperidin-1-yl)thiazolo[4,5-b]pyrazin-2-yl)-5′-methoxy-6-methyl-[4,4′-bipyridine]-3-carboxamide] | > 10 | 0.001 to 0.1

Further lines, results first:

IC50 (DLD1 WT cells) [µM] | IC50 (DLD1 BRCA2 (−/−) cells) [µM] | SMILES
> 10 | 0.001 to 0.1 | COc1cnc(Cl)cc1-c1cc(C)ncc1C(=O)Nc1nc2ncc(C3CCC(OC(F)F)CC3)nc2s1 (centres unmarked) [Example 398, 2′-chloro-N-(6-(4-(difluoromethoxy)cyclohexyl)thiazolo[4,5-b]pyrazin-2-yl)-5′-methoxy-6-methyl-[4,4′-bipyridine]-3-carboxamide]
> 10 | 0.001 to 0.1 | COc1cnc(Cl)cc1-c1cc(C)ncc1C(=O)Nc1nc2ncc(C3CCC(C)(C#N)CC3)nc2s1 (centres unmarked) [Example 410, 2′-chloro-N-(6-(4-cyano-4-methylcyclohexyl)thiazolo[4,5-b]pyrazin-2-yl)-5′-methoxy-6-methyl-[4,4′-bipyridine]-3-carboxamide]
7.5 to 10 | 0.001 to 0.1 | COc1cnc(Cl)cc1-c1cc(C)ncc1C(=O)Nc1nc2ncc(C3=CCC(OC(F)(F)F)CC3)nc2s1 (centres unmarked) [Example 420, 2′-chloro-5′-methoxy-6-methyl-N-(6-(4-(trifluoromethoxy)cyclohex-1-en-1-yl)thiazolo[4,5-b]pyrazin-2-yl)-[4,4′-bipyridine]-3-carboxamide]
> 10 | 0.001 to 0.1 | COc1cnc(Cl)cc1-c1cc(C)ncc1C(=O)Nc1nc2ncc(N3CCOC4CCCC43)nc2s1 (centres unmarked) [Example 424, 2′-chloro-N-(6-(hexahydrocyclopenta[b][1, 4]oxazin-4(4aH)-yl)thiazolo[4,5-b]pyrazin-2-yl)-5′-methoxy-6-methyl-[4,4′-bipyridine]-3-carboxamide]
> 10 | 0.001 to 0.1 | COc1cnc(Cl)cc1-c1cc(C)ncc1C(=O)Nc1nc2ncc(N3CCOC(C(F)F)C3)nc2s1 (centres unmarked) [Example 429, 2′-chloro-N-(6-(2-(difluoromethyl)morpholino)thiazolo[4,5-b]pyrazin-2-yl)-5′-methoxy-6-methyl-[4,4′-bipyridine]-3-carboxamide]
> 10 | 0.001 to 0.1 | COc1cnc(Cl)cc1-c1cc(C)ncc1C(=O)Nc1nc2ncc(N3CCO[C@H](C(F)(F)F)C3)nc2s1 [Example 430, (S)-2′-chloro-5′-methoxy-6-methyl-N-(6-(2-(trifluoromethyl)morpholino)thiazolo[4,5-b]pyrazin-2-yl)-[4,4′-bipyridine]-3-carboxamide]
> 10 | 0.001 to 0.1 | COc1cnc(Cl)cc1-c1cc(C)ncc1C(=O)Nc1nc2ncc(C3CCN(CC(F)(F)F)CC3)nc2s1 [Example 432, 2′-chloro-5′-methoxy-6-methyl-N-(6-(1-(2,2,2-trifluoroethyl)piperidin-4-yl)thiazolo[4,5-b]pyrazin-2-yl)-[4,4′-bipyridine]-3-carboxamide]
> 10 | 0.001 to 0.1 | COc1cnc(Cl)cc1-c1cc(C)ncc1C(=O)Nc1nc2ncc([C@@H]3CCO[C@@H](C)C3)nc2s1 [Example 433, 2′-chloro-5′-methoxy-6-methyl-N-(6-((2S,4R)-2-methyltetrahydro-2H-pyran-4-yl)thiazolo[4,5-b]pyrazin-2-yl)-[4,4′-bipyridine]-3-carboxamide]
> 10 | 0.001 to 0.1 | COc1cnc(Cl)cc1-c1cc(C)ncc1C(=O)Nc1nc2ncc(N3CCO[C@@H](C(F)(F)F)C3)nc2s1 [Example 440, (R)-2′-chloro-5′-methoxy-6-methyl-N-(6-(2-(trifluoromethyl)morpholino)thiazolo[4,5-b]pyrazin-2-yl)-[4,4′-bipyridine]-3-carboxamide]
> 10 | 0.001 to 0.1 | CNC1CCN(c2cnc3nc(NC(=O)c4cnc(C)cc4-c4cc(Cl)ncc4OC)sc3n2)CC1(F)F (centres unmarked) [Example 455, 2′-chloro-N-(6-(3,3-difluoro-4-(methylamino)piperidin-1-yl)thiazolo[4,5-b]pyrazin-2-yl)-5′-methoxy-6-methyl-[4,4′-bipyridine]-3-carboxamide]
> 10 | 0.001 to 0.1 | COc1cnc(Cl)cc1-c1cc(C)ncc1C(=O)Nc1nc2ncc(N3CCC(C4COC4)CC3)nc2s1 [Example 464, 2′-chloro-5′-methoxy-6-methyl-N-(6-(4-(oxetan-3-yl)piperidin-1-yl)thiazolo[4,5-b]pyrazin-2-yl)-[4,4′-bipyridine]-3-carboxamide]
